What was measured:
S. aureus = test: MIC testing, broth microdilution (NCCLS), S. aureus; type: cell-based, Staphylococcus aureus; details: for SA24 (MIC): S. aureus after 24 hours exposure; for SA48 (MIC): S. aureus after 48 hours exposure
Text: (§1) The broth microdilution format of the National Committee for Clinical Laboratory Standards (NCCLS) approved standard for susceptibility tests as outlined in M7-A4 “methods for dillution Antimicrobial susceptibility tests for bacteria that grow aerobically; approved standard—fifth edition”, January 2000 was utilized for minimum inhibitory concentration testing in Mueller-Hinton broth. The broth for Streptococcus pyogenes testing was supplemented with 2% laked horse blood. A positive result in initial testing was determined by complete inhibition of macroscopic bacterial growth at a concentration of 128 micrograms per mL after incubation for 16 to 24 hours at 37 degrees C. In the case of Micrococcus luteus, incubation was at 30 degrees C. […] Bacterial Types Are: • SA24 S. aureus after 24 hours exposure • SA48 S. aureus after 48 hours exposure • EC24 E. coli after 24 hours exposure

E. coli = test: MIC testing, broth microdilution (NCCLS), E. coli; type: cell-based; details: E. coli after 24 hours exposure
Text: as §1

SMILES	SA24 (MIC) (S. aureus)	SA48 (MIC) (S. aureus)	EC24 (MIC) (E. coli)
O=C(Cc1cccc(C(F)(F)F)c1)NC1COC(CO)C(NC(=O)c2ccc(-c3ccccc3)cc2)C1OC1OC(CO)C(O)C(O)C1NC(=O)Cc1cccc(C(F)(F)F)c1 (centres unmarked) [compound 2]	+ (+ indicates an MIC value of less than 128 micrograms per mL)	+ (+ indicates an MIC value of less than 128 micrograms per mL)	− (− indicates an MIC of greater then 128 micrograms per mL)
O=C(Nc1cccc(C(F)(F)F)c1)NC1C(OC2C(NC(=O)c3cccc(C(F)(F)F)c3)COC(CO)C2NC(=O)c2ccc(-c3ccccc3)cc2)OC(CO)C(O)C1O (centres unmarked) [compound 5]	+ (+ indicates an MIC value of less than 128 micrograms per mL)	+ (+ indicates an MIC value of less than 128 micrograms per mL)	− (− indicates an MIC of greater then 128 micrograms per mL)
O=C(Cc1ccc(C(F)(F)F)cc1)NC1COC(CO)C(NC(=O)c2ccc(-c3ccccc3)cc2)C1OC1OC(CO)C(O)C(O)C1NC(=O)Nc1cccc(C(F)(F)F)c1 (centres unmarked) [compound 7]	+ (+ indicates an MIC value of less than 128 micrograms per mL)	+ (+ indicates an MIC value of less than 128 micrograms per mL)	− (− indicates an MIC of greater then 128 micrograms per mL)
O=C(Nc1cccc(C(F)(F)F)c1)NC1C(OC2C(NC(=O)OCc3ccccc3)COC(CO)C2NC(=O)c2ccc(-c3ccccc3)cc2)OC(CO)C(O)C1O (centres unmarked) [compound 8]	+ (+ indicates an MIC value of less than 128 micrograms per mL)	+ (+ indicates an MIC value of less than 128 micrograms per mL)	− (− indicates an MIC of greater then 128 micrograms per mL)
Cc1ccc(S(=O)(=O)NC2C(OC3C(NC(=N)Nc4cccc(C(F)(F)F)c4)COC(CO)C3NC(=O)c3ccc(-c4ccccc4)cc3)OC(CO)C(O)C2O)cc1 (centres unmarked) [compound 12]	+ (+ indicates an MIC value of less than 128 micrograms per mL)	+ (+ indicates an MIC value of less than 128 micrograms per mL)	+ (+ indicates an MIC value of less than 128 micrograms per mL)
Cc1ccc(S(=O)(=O)NC2[C@H](O[C@@H]3C(NC(=N)Nc4cccc(C(F)(F)F)c4)COC(CO)[C@@H]3N)OC(CO)[C@@H](O)[C@@H]2O)cc1 (some centres unmarked) [compound 13]	+ (+ indicates an MIC value of less than 128 micrograms per mL)	–	–
N=C(Nc1cccc(C(F)(F)F)c1)NC1[C@H](O[C@@H]2C(NC(=N)Nc3cccc(C(F)(F)F)c3)COC(CO)[C@@H]2NC(=O)c2ccc(-c3ccccc3)cc2)OC(CO)[C@@H](O)[C@@H]1O (some centres unmarked) [compound 16]	+ (+ indicates an MIC value of less than 128 micrograms per mL)	+ (+ indicates an MIC value of less than 128 micrograms per mL)	+ (+ indicates an MIC value of less than 128 micrograms per mL)
CCCCCC(C)CCC(=O)N[C@H]1C(CO)OCC(NC(=N)Nc2cccc(C(F)(F)F)c2)[C@H]1O[C@@H]1OC(CO)[C@@H](O)[C@H](O)C1NC(=N)Nc1cccc(C(F)(F)F)c1 (some centres unmarked) [compound 19]	+ (+ indicates an MIC value of less than 128 micrograms per mL)	+ (+ indicates an MIC value of less than 128 micrograms per mL)	+ (+ indicates an MIC value of less than 128 micrograms per mL)
N=C(Nc1cccc(C(F)(F)F)c1)NC1[C@H](O[C@@H]2C(NC(=N)Nc3cccc(C(F)(F)F)c3)COC(CO)[C@@H]2NCc2ccc(-c3ccccc3)cc2)OC(CO)[C@@H](O)[C@@H]1O (some centres unmarked) [compound 20]	+ (+ indicates an MIC value of less than 128 micrograms per mL)	+ (+ indicates an MIC value of less than 128 micrograms per mL)	+ (+ indicates an MIC value of less than 128 micrograms per mL)
N=C(Nc1cccc(C(F)(F)F)c1)NC1[C@H](O[C@@H]2C(NC(=N)Nc3cccc(C(F)(F)F)c3)COC(CO)[C@@H]2NC(=N)Nc2ccc(-c3ccccc3)cc2)OC(CO)[C@@H](O)[C@@H]1O (some centres unmarked) [compound 21]	+ (+ indicates an MIC value of less than 128 micrograms per mL)	+ (+ indicates an MIC value of less than 128 micrograms per mL)	+ (+ indicates an MIC value of less than 128 micrograms per mL)
CC(C)=CCCC(C)=CCN[C@H]1C(CO)OCC(NC(=N)Nc2cccc(C(F)(F)F)c2)[C@H]1O[C@@H]1OC(CO)[C@@H](O)[C@H](O)C1NC(=N)Nc1cccc(C(F)(F)F)c1 (some centres unmarked) [compound 23]	+ (+ indicates an MIC value of less than 128 micrograms per mL)	+ (+ indicates an MIC value of less than 128 micrograms per mL)	+ (+ indicates an MIC value of less than 128 micrograms per mL)
CC(C)=CCCC(C)=CCCC(C)=CCN[C@H]1C(CO)OCC(NC(=N)Nc2cccc(C(F)(F)F)c2)[C@H]1O[C@@H]1OC(CO)[C@@H](O)[C@H](O)C1NC(=N)Nc1cccc(C(F)(F)F)c1 (some centres unmarked) [compound 24]	+ (+ indicates an MIC value of less than 128 micrograms per mL)	+ (+ indicates an MIC value of less than 128 micrograms per mL)	+ (+ indicates an MIC value of less than 128 micrograms per mL)
N=C(Nc1cccc(C(F)(F)F)c1)NC1[C@H](O[C@@H]2C(NC(=N)Nc3cccc(C(F)(F)F)c3)COC(CO)[C@@H]2NC(=O)C(N)c2ccc(-c3ccccc3)cc2)OC(CO)[C@@H](O)[C@@H]1O (some centres unmarked) [compound 25]	+ (+ indicates an MIC value of less than 128 micrograms per mL)	+ (+ indicates an MIC value of less than 128 micrograms per mL)	+ (+ indicates an MIC value of less than 128 micrograms per mL)
O=C(N[C@H]1C(CO)OCC(NS(=O)(=O)c2cccc(C(F)(F)F)c2)[C@H]1O[C@@H]1OC(CO)[C@@H](O)[C@H](O)C1NS(=O)(=O)c1cccc(C(F)(F)F)c1)c1ccc(-c2ccccc2)cc1 (some centres unmarked) [compound 36]	+ (+ indicates an MIC value of less than 128 micrograms per mL)	+ (+ indicates an MIC value of less than 128 micrograms per mL)	–
NC1[C@H](O[C@@H]2C(NC(=O)Nc3cccc(C(F)(F)F)c3)COC(CO)[C@@H]2NC(=O)c2ccc(-c3ccccc3)cc2)OC(CO)[C@@H](O)[C@@H]1O (some centres unmarked) [compound 43]	+ (+ indicates an MIC value of less than 128 micrograms per mL)	–	–
O=C(Nc1cccc(C(F)(F)F)c1)NC1COC(CO)[C@H](NC(=O)c2ccc(-c3ccccc3)cc2)[C@@H]1O[C@@H]1OC(CO)[C@@H](O)[C@H](O)C1NC(=O)OCc1ccccc1 (some centres unmarked) [compound 44]	+ (+ indicates an MIC value of less than 128 micrograms per mL)	+ (+ indicates an MIC value of less than 128 micrograms per mL)	–
N[C@H]1C(CO)OCC(NC(=O)Nc2cccc(C(F)(F)F)c2)[C@H]1O[C@@H]1OC(CO)[C@@H](O)[C@H](O)C1NC(=O)OCc1ccccc1 (some centres unmarked) [compound 45]	+ (+ indicates an MIC value of less than 128 micrograms per mL)	–	–
Cc1ccc(NC(=N)NC2[C@H](O[C@@H]3C(NC(=O)Nc4cccc(C(F)(F)F)c4)COC(CO)[C@@H]3N)OC(CO)[C@@H](O)[C@@H]2O)cc1 (some centres unmarked) [compound 47]	+ (+ indicates an MIC value of less than 128 micrograms per mL)	–	–
Cc1ccc(S(=O)(=O)NC2[C@H](O[C@@H]3C(NC(=O)Nc4cccc(C(F)(F)F)c4)COC(CO)[C@@H]3N)OC(CO)[C@@H](O)[C@@H]2O)cc1 (some centres unmarked) [compound 50]	+ (+ indicates an MIC value of less than 128 micrograms per mL)	–	–
CCCCCC(C)CCC(=O)N[C@H]1C(CO)OCC(NC(=O)Nc2cccc(C(F)(F)F)c2)[C@H]1O[C@@H]1OC(CO)[C@@H](O)[C@H](O)C1NC(=O)Nc1cccc(C(F)(F)F)c1 (some centres unmarked) [compound 55]	+ (+ indicates an MIC value of less than 128 micrograms per mL)	+ (+ indicates an MIC value of less than 128 micrograms per mL)	–
O=C(/C=C/c1ccc(Cl)cc1)N[C@H]1C(CO)OCC(NC(=O)Nc2cccc(C(F)(F)F)c2)[C@H]1O[C@@H]1OC(CO)[C@@H](O)[C@H](O)C1NC(=O)Nc1cccc(C(F)(F)F)c1 (some centres unmarked) [compound 58]	+ (+ indicates an MIC value of less than 128 micrograms per mL)	+ (+ indicates an MIC value of less than 128 micrograms per mL)	–
CCCCCN(CCCCC)C1C(CO)OCC(NC(=O)Nc2cccc(C(F)(F)F)c2)C1OC1OC(CO)C(O)C(O)C1NC(=O)Nc1cccc(C(F)(F)F)c1 (centres unmarked) [compound 60]	+ (+ indicates an MIC value of less than 128 micrograms per mL)	+ (+ indicates an MIC value of less than 128 micrograms per mL)	–
CCCCCCCCOc1ccc(C(=O)NC2C(CO)OCC(NC(=O)Nc3cccc(C(F)(F)F)c3)C2OC2OC(CO)C(O)C(O)C2NC(=O)Nc2cccc(C(F)(F)F)c2)cc1 (centres unmarked) [compound 64]	+ (+ indicates an MIC value of less than 128 micrograms per mL)	+ (+ indicates an MIC value of less than 128 micrograms per mL)	–
CCCCCCCCCCC(=O)NC1C(CO)OCC(NC(=O)Nc2cccc(C(F)(F)F)c2)C1OC1OC(CO)C(O)C(O)C1NC(=O)OCc1ccccc1 (centres unmarked) [compound 78]	+ (+ indicates an MIC value of less than 128 micrograms per mL)	–	–
CCCCCCCCCCC(=O)NC1C(CO)OCC(NC(=O)Nc2cccc(C(F)(F)F)c2)C1OC1OC(CO)C(O)C(O)C1NS(=O)(=O)c1ccc(C)cc1 (centres unmarked) [compound 79]	+ (+ indicates an MIC value of less than 128 micrograms per mL)	–	–
CCCCCCCCCCC(=O)NC1C(CO)OCC(NC(=O)NCCCC)C1OC1OC(CO)C(O)C(O)C1NS(=O)(=O)c1ccc(C)cc1 (centres unmarked) [compound 80]	+ (+ indicates an MIC value of less than 128 micrograms per mL)	–	–

— US7700577B2, “Carbohydrate based anti-bacterials” (Alchemia Limited, priority 2002, dated 2010)
